According to patent US20110053897A1 (IRM LLC, priority 2009, published 2011):

target: T1, Syk kinase (Homo sapiens, UniProt P43405); experiment: Syk kinase inhibition, Caliper LabChip off-chip mobility-shift kinase assay; assay type: biochemical; conditions: Caliper LabChip assay; read-out: Syk Enzyme IC50
T1 construct: purchased
Method in brief: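 Purified Syk pre-incubated 15 min with compound in 100 mM HEPES pH 7.5, 1 mM DTT, 10 mM MgCl2 or MnCl2, 0.002% Brij-35, then 1.5 μM fluorescein peptide and ATP at apparent KM added; 1–1.5 h at room temperature, 4% DMSO, EDTA stop. Microfluidic mobility-shift product/substrate conversion gave % inhibition; IC50 from 12-point series (10–0.00003 μM) by 4-parameter fit.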

Structure (SMILES) | IC50 [nM]
O=c1[nH]ccc2cc(Nc3cnccn3)nc(N[C@H]3CC[C@@H](O)CC3)c12 [compound 981] | 15
CCn1ccc2cc(-c3cnc(N)nc3)nc(N)c2c1=O [compound 743, 8-amino-6-(2-aminopyrimidin-5-yl)-2-ethyl-2,7-naphthyridin-1(2H)-one] | 287
CC1(Cn2ccc3cc(Nc4cnccn4)nc(NC4CCCC4)c3c2=O)COC1 [compound 762] | 22

The next lines start with the values.

IC50 [nM] | Structure (SMILES)
31 | CC(O)c1ccnc(Nc2cc3ccn(CC(N)=O)c(=O)c3c(NC(C)(C)C)n2)c1 (centres unmarked) [compound 725]
46 | C=Cc1ccnc(Nc2cc3ccn(CCO)c(=O)c3c(NC(C)(C)C)n2)c1 [compound 858]
99 | Cn1cc2cc(Nc3nc(Nc4c[n+]([O-])ccn4)cc4ccn(CCO)c(=O)c34)ccc2n1 [compound 658]
12 | NC(=O)Cn1ccc2cc(Nc3cnccn3)nc(NC3CCC3)c2c1=O [compound 754]
69 | CCn1ccc2cc(Nc3cc(C(C)(C)O)ccn3)nc(NC(C)(C)CO)c2c1=O [compound 701]
94 | CC(C)(C)CNc1nc(-c2cnc(N)nc2)cc2ccn(CCO)c(=O)c12 [compound 911]
33 | CC(C)(C)Nc1nc(Nc2cc(C(C)(F)F)ccn2)cc2ccn(CCO)c(=O)c12 [compound 874]
74 | CC(C)(O)Cc1ccnc(Nc2cc3ccn(CCO)c(=O)c3c(NC(C)(C)C)n2)c1 [compound 880]
23 | CCn1ccc2cc(Nc3cc(C)ccn3)nc(N[C@H]3CC[C@H](O)C3)c2c1=O [compound 945]
7 | CC(C)(C)Nc1nc(Nc2c[n+]([O-])ccn2)cc2ccn(C[C@H](O)CO)c(=O)c12 [compound 674]
51 | CCn1ccc2cc(Nc3cnccn3)nc(NC3CCC(C)(O)CC3)c2c1=O (centres unmarked) [compound 952]
48 | CC(O)c1ccnc(Nc2cc3ccn(CC(N)=O)c(=O)c3c(NC3(C)CC3)n2)c1 (centres unmarked) [compound 723]
76 | CC(C)(C)Nc1nc(Nc2cc(C3(O)CCC3)ccn2)cc2ccn(CCO)c(=O)c12 [compound 870]
13 | CC(C)n1ccc2cc(Nc3c[n+]([O-])ccn3)nc(N[C@H]3CC[C@@H](CO)C3)c2c1=O [compound 1018]
117 | CC(C)(C)Nc1nc(Nc2cc(N3CCC(=O)CC3)ncn2)cc2ccn(CCO)c(=O)c12 [compound 632]
237 | Cn1cc(-c2cc(Nc3cc4ccn(CCO)c(=O)c4c(NC(C)(C)C)n3)ncn2)cn1 [compound 636]
246 | C/C(=N\OCCN(C)C)c1ccnc(Nc2cc3ccn(CCO)c(=O)c3c(NC(C)(C)C)n2)c1 [compound 686]
329 | COCCNC(=O)c1ccnc(Nc2cc3ccn(CCO)c(=O)c3c(NC(C)(C)C)n2)c1 [compound 682]
72 | CC(C)(C)Nc1nc(Nc2cc(-c3cccnc3)ccn2)cc2ccn(CCO)c(=O)c12 [compound 828]
102 | CC(C)(C)Nc1nc(Nc2cc(-c3cnn(CC(N)=O)c3)ccn2)cc2ccn(CCO)c(=O)c12 [compound 849]
24 | CC(C)(C)Nc1nc(Nc2cc(-n3cc(C(=O)O)cn3)ncn2)cc2ccn(CCO)c(=O)c12 [compound 888]
145 | CCn1ccc2cc(Nc3cnccn3)nc(NCC(O)C(F)(F)F)c2c1=O (centres unmarked) [compound 779, 2-ethyl-6-(pyrazin-2-ylamino)-8-((3,3,3-trifluoro-2-hydroxypropyl)amino)-2,7-naphthyridin-1(2H)-one]
117 | CC(C)(C)Nc1nc(Nc2cc(-c3cn[nH]c3)ccn2)cc2ccn(CCO)c(=O)c12 [compound 840]
69 | CCn1ccc2cc(Nc3cnccn3)nc(NS(C)(=O)=O)c2c1=O [compound 745]
121 | C=Cc1cc(Nc2cc3ccn(CCO)c(=O)c3c(NC(C)(C)C)n2)ncn1 [compound 618, 8-(tert-butylamino)-2-(2-hydroxyethyl)-6-(6-vinylpyrimidin-4-ylamino)-2,7-naphthyridin-1(2H)-one]

same assay, conditions: read-out: Syk Enzyme IC50

Structure (SMILES) | IC50 [nM]
CCNC(=O)CN1CCC(c2ccc(Nc3nc(-c4cncc(OC)n4)cc4cc[nH]c(=O)c34)cc2C)CC1 [compound 179] | 80
Cc1cc(-c2cc3cc[nH]c(=O)c3c(Nc3ccc([C@H]4CC[C@H](N5CCOCC5)CC4)cc3)n2)cnc1N [compound 100] | 193
CCOCC(=O)N1CCC(c2ccc(Nc3nc(-c4cncc(OC)n4)cc4cc[nH]c(=O)c34)cc2)CC1 [compound 28] | 115
COc1nc(-c2cc3cc[nH]c(=O)c3c(Nc3ccc(C4CCNCC4)c(C)c3)n2)cnc1N [compound 168] | 4
COCCNC(=O)c1ccc(Nc2nc(-c3cnc(C)nc3)cc3cc[nH]c(=O)c23)cc1 [compound 74] | 29
Cc1cc(Nc2nc(-c3cncc(C(=O)N4CCOCC4)c3)cc3cc[nH]c(=O)c23)ccc1C1CCN(C2CC2)CC1 [compound 208] | 112
O=c1[nH]ccc2cc(C3CCNCC3)nc(Nc3ccc(N4CCOCC4)cc3)c12 [compound 2] | 249
COC(=O)CCN1CCC(c2ccc(Nc3nc(-c4cncc(OC)n4)cc4cc[nH]c(=O)c34)cc2C)CC1 [compound 160] | 81
CCOC(=O)/C=C/c1cc2cc[nH]c(=O)c2c(Nc2ccc(N3CCOCC3)cc2)n1 [compound 242] | 332
CCN1CCN(Cc2n[nH]c3cc(Nc4nc(-c5cncc(C(=O)N6CCOCC6)c5)cc5cc[nH]c(=O)c45)ccc23)CC1 [compound 207] | 89
O=c1[nH]ccc2cc(Nc3ccccn3)nc(N3CCCC3)c12 [compound 279] | 1420
CC(C)Nc1nc(Nc2cnccn2)cc2cc[nH]c(=O)c12 [compound 462] | 30
CCN1CCN(c2n[nH]c3cc(Nc4nc(-c5cncnc5)cc5cc[nH]c(=O)c45)ccc23)CC1 [compound 199] | 20
COc1cncc(-c2cc3cc[nH]c(=O)c3c(Nc3ccc(CCN4CCC(F)(F)CC4)cc3)n2)n1 [compound 44] | 638
O=c1[nH]ccc2cc(Nc3ccccn3)nc(N[C@@H]3CCC[C@H]3O)c12 (racemic) [compound 277] | 860
C[C@H](O)CNc1nc(-c2cnc(N)nc2)cc2cc[nH]c(=O)c12 [compound 451] | 88

Structure (SMILES) | IC50 [nM]
CC(C)Nc1nc(Nc2ccc(Cl)cn2)cc2cc[nH]c(=O)c12 [compound 560] | 611
Cc1cc(Nc2nc(-c3cncc(NC4CC4)n3)cc3cc[nH]c(=O)c23)ccc1C1CCN(CCC#N)CC1 [compound 68] | 89
O=c1[nH]ccc2cc(Nc3ccccn3)nc(N[C@H]3CCC[C@H]3O)c12 (racemic) [compound 280] | 62
COc1ncc(-c2cc3cc[nH]c(=O)c3c(Nc3ccc(C4CN(C)C4)cc3)n2)cn1 [compound 139] | 34
COCC(C)N1CCC(c2ccc(Nc3nc(-c4cncc(OC)n4)cc4cc[nH]c(=O)c34)cc2C)CC1 (centres unmarked) [compound 174] | 14
COc1ncc(-c2cc3cc[nH]c(=O)c3c(Nc3ccc(C4CNC4)cc3)n2)cn1 [compound 130] | 57
COCCN1CCC(c2ccc(Nc3nc(-c4cnc5nccn5c4)cc4cc[nH]c(=O)c34)cc2C)CC1 [compound 30] | 8
COCCCc1cc2cc[nH]c(=O)c2c(Nc2ccc(N3CCOCC3)cc2)n1 [compound 240] | 356
CNS(=O)(=O)c1ccc(Nc2nc(Nc3cnccn3)cc3ccn(C)c(=O)c23)cc1 [compound 350] | 803
O=c1[nH]ccc2cc(Nc3ccccn3)nc(NC3CC3)c12 [compound 524] | 199
COC[C@H](C)Nc1nc(-c2cnc(N)nc2)cc2cc[nH]c(=O)c12 [compound 448] | 125
O=c1[nH]ccc2cc(-c3cncnc3)nc(Nc3ccc(C4CNC4)cc3)c12 [compound 129] | 109
Cc1cc(Nc2nc(Nc3ccc(S(N)(=O)=O)cn3)cc3cc[nH]c(=O)c23)ccc1C1CCN(C2CC2)CC1 [compound 258] | 61
C=C(C)c1cc2cc[nH]c(=O)c2c(Nc2ccc(C3CCN(C4CC4)CC3)c(C)c2)n1 [compound 229] | 743
CN1CCN([C@H]2CC[C@H](c3ccc(Nc4nc(-c5cncnc5)cc5cc[nH]c(=O)c45)cc3)CC2)CC1 [compound 103] | 59

More lines, now with the values ahead:

IC50 [nM] | Structure (SMILES)
393 | Cc1ccnc(Nc2cc3ccn(C)c(=O)c3c(Nc3ccc(C4CCOCC4)nc3)n2)c1 [compound 372]
81 | Cn1ccc2cc(Nc3cnccn3)nc(NCC(F)(F)F)c2c1=O [compound 464]
292 | NC(=O)c1ccnc(Nc2cc3cc[nH]c(=O)c3c(NC3CC3)n2)c1 [compound 559]
49 | Cn1ccc2cc(Nc3cnccn3)nc(N[C@H]3CC[C@H](O)CC3)c2c1=O [compound 358]
45.7 | [2H]C([2H])([2H])n1ccc2cc(Nc3cnccn3)nc(N[C@@H](C)CO)c2c1=O [compound 402]
323 | CCCNC(=O)c1ccc(Nc2nc(Nc3cnccn3)cc3ccn(C)c(=O)c23)cc1 [compound 366]
361 | COc1ccc(Nc2nc(Nc3cnccn3)cc3ccn(C)c(=O)c23)cc1 [compound 365]
224 | CCn1ccc2cc(Nc3cc(C)ccn3)nc(NC[C@@H]3CC[C@@H](O)C3)c2c1=O [compound 412]
1540 | Cc1ccnc(Nc2cc3cc[nH]c(=O)c3c(NC3CNC3)n2)c1 [compound 300]
85 | CCn1ccc2cc(Nc3cc(C)c(F)cn3)nc(N[C@@H](C)CO)c2c1=O [compound 395]
384 | CCn1ccc2cc(Nc3cnc(C)cn3)nc(N[C@@H](C)CO)c2c1=O [compound 394]
155 | Cn1ccc2cc(Nc3cnccn3)nc(NC(C)(C)CO)c2c1=O [compound 472]
16 | Cn1ccc2cc(Nc3cnccn3)nc(NC3CCC3)c2c1=O [compound 460]
57 | CC(C)Nc1nc(Nc2cnccn2)cc2ccn(C)c(=O)c12 [compound 347]
82 | C[C@@H](O)CNc1nc(Nc2cnccn2)cc2ccn(C)c(=O)c12 [compound 470]
